Where two headings read alike, the source gives them in different places.

Common to all, as to type: cell-based
The target of test [1] is T1, human dopamine transporter (hDAT) (Homo sapiens, UniProt Q01959).
T1 construct: expressed in transfected cells
Put plainly: Assay of monoamine uptake: inhibition of dopamine uptake. As to the method: (§1) The in vitro test for the inhibition of dopamine and serotonin uptake was performed in Chinese Hamster Ovary cells expressing the human dopamine transporter (hDAT) or the human serotonin transporter (hSERT). The in vitro test for the inhibition of noradrenaline uptake was performed in Madin Darby Canine Kidney Cells (MDCK) expressing the human noradrenaline transporter (hNET).
(§2) Briefly, cell lines stably overexpressing the appropriate human transporter were propagated and plated according to standard cell culture techniques. Following plating, cells were left to adhere for either one or two days. A 6-point serial dilution (normally 1 E-5M to 1E-10M) of test and reference compounds was prepared, added to the washed cells and incubated for 5 minutes at ambient temperature for dopamine or serotonin transporter overexpressing and 37°C for noradrenaline overexpressing cells. Next, a final concentration of 20 nM of appropriate neurotransmitter (mixture of [^3H]-neurotransmitter and non-labelled neurtoransmitter) was added and the cells were incubated for three or five minutes at ambient temperature for dopamine or serotonin transporter overexpressing cells or ten minutes at 37°C for noradrenaline overexpressing cells. Following termination of the assay, Microscint-20 was added directly to the cells and the amount of radioactivity taken up by the cells was estimated by scintillation counting.
(§3) pEC50 values indicating inhibition of monoamine uptake were calculated using standard curve fitting techniques.

Test [2] concerns the target T2, human serotonin transporter (hSERT) (Homo sapiens, UniProt P31645).
T2 construct: expressed in transfected cells
Put plainly: Assay of monoamine uptake: inhibition of serotonin uptake. As to the method:
as §1, §2, §3

Test [3] has as its target T3, human noradrenaline transporter (hNET) (Homo sapiens, UniProt P23975).
T3 construct: expressed in transfected cells
Put plainly: Assay of monoamine uptake: inhibition of noradrenaline uptake. As to the method:
as §1, §2, §3

Where [4] appears, read: inhibition of dopamine uptake, Chinese Hamster Ovary cells expressing hDAT, 20 nM neurotransmitter ([3H]-labelled and non-labelled), ambient temperature, read-out: hDAT.
Where [5] appears, read: inhibition of serotonin uptake, Chinese Hamster Ovary cells expressing hSERT, 20 nM neurotransmitter ([3H]-labelled and non-labelled), ambient temperature, read-out: hSERT.
[6] abbreviates: inhibition of noradrenaline uptake, Madin Darby Canine Kidney Cells (MDCK) expressing hNET, 20 nM neurotransmitter ([3H]-labelled and non-labelled), 37°C, read-out: hNET.

T1 sequence (Q01959 whole entry): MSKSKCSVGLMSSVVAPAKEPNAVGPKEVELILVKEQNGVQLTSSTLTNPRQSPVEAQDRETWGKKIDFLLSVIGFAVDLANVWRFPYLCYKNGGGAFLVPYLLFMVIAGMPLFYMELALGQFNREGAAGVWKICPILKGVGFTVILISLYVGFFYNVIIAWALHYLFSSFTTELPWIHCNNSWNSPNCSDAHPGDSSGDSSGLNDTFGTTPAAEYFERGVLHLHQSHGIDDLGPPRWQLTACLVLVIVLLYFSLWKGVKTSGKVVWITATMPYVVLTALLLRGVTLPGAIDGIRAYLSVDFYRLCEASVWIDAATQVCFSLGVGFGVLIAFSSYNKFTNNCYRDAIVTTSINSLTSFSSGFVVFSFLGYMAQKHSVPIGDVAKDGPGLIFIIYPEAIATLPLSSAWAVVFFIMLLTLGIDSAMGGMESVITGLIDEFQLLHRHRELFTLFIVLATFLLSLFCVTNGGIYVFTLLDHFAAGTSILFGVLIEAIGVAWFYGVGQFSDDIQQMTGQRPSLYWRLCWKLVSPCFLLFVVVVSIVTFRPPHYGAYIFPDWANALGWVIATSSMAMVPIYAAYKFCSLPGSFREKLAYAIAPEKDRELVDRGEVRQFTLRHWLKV
T3 sequence (P23975 whole entry): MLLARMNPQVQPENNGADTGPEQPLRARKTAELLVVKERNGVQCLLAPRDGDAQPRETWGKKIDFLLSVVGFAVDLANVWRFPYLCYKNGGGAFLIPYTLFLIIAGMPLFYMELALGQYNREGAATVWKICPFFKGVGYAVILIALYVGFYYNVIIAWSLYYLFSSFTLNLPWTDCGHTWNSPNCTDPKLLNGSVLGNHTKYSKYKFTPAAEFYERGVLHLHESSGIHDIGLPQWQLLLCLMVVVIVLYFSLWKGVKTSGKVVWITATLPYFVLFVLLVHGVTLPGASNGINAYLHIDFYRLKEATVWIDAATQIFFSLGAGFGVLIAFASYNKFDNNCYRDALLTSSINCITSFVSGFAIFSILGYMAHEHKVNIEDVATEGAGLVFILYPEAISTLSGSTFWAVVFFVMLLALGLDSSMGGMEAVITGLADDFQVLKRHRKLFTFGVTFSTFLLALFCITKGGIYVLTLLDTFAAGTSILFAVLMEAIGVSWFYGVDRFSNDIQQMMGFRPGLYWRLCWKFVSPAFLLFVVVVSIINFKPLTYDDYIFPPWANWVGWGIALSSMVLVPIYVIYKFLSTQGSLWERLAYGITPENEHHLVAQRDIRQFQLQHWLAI
T2 sequence (P31645 whole entry): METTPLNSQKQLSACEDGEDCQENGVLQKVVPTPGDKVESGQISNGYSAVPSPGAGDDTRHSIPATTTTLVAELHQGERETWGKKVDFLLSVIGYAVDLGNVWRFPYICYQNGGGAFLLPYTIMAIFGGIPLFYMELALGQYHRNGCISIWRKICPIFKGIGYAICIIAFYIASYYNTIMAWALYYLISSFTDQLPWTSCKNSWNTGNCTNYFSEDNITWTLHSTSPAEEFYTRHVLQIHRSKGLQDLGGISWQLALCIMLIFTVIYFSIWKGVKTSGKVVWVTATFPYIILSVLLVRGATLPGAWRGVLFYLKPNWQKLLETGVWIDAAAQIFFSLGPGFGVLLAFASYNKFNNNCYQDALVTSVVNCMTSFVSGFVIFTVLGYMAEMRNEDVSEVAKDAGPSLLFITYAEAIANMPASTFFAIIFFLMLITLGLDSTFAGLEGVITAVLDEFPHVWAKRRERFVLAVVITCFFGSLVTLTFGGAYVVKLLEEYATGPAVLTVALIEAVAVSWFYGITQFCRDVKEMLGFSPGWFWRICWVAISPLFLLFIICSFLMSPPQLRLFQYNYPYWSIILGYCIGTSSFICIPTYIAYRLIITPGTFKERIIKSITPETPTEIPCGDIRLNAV

For `c1ccc(Oc2cccc(OC3CC4CCC(C3)N4)c2)cc1` (stereo not drawn) [Example 111.5, 3-endo-(3-Phenoxyphenoxy)-8-azabicyclo[3.2.1]octane], the results for the EC50 in test [1], in test [2] and in test [3] were under 0.1 µM, over 1 µM and 0.1 to 1 µM, respectively.

Consider `N#Cc1ccc(-c2cc(C#N)cc(OC3CC4CCC(C3)N4)c2)nc1` (stereo not drawn) [Example IX.3, exo 6-(3-(8-Azabicyclo[3.2.1]oct-3-yloxy)-5-cyanophenyl)nicotinonitrile], for which the EC50 in test [1] (setting [4]) is over 1 µM; in test [2] (setting [5]), under 0.1 µM; in test [3] (setting [6]), over 1 µM.

For the molecule `FC(F)(F)c1ccccc1-c1cccc(OC2CC3CCC(C2)N3)c1` (stereo not drawn) [IV.8, 3-exo-(2'-Trifluoromethylbiphenyl-3-yloxy)-8-azabicyclo[3.2.1]octane], the EC50 in test [1] (setting [4]) was over 1 µM; in test [2] (setting [5]) it was 0.1 to 1 µM; in test [3] (setting [6]), under 0.1 µM.

`COc1cc(Oc2ccccc2)cc(OC2CC3CCC(C2)N3)c1F` (stereo not drawn) [IV.9, 3-exo-(2-Fluoro-3-methoxy-5-phenoxyphenoxy)-8-azabicyclo[3.2.1]octane]: the EC50 in test [1] (setting [4]) is under 0.1 µM; in test [2] (setting [5]) it was over 1 µM; in test [3] (setting [6]), under 0.1 µM.

Regarding `Clc1cc(Oc2ccccc2)cc(O[C@@H]2C[C@H]3CC[C@@H](C2)N3)c1` [IV.19, 3-exo-(3-Chloro-5-phenoxyphenoxy)-8-azabicyclo[3.2.1]octane], the EC50 was under 0.1 µM in test [1] (setting [4]), over 1 µM in test [2] (setting [5]) and under 0.1 µM in test [3] (setting [6]).

As to `FC(F)(F)c1ccc(OC2CC3CCC(C2)N3)cc1-c1ccccc1` (stereo not drawn) [VI.3, 3-exo-(6-Trifluoromethylbiphenyl-3-yloxy)-8-azabicyclo[3.2.1]octane], the EC50 in test [1] (setting [4]) was over 1 µM; in test [2] (setting [5]) it was 0.1 to 1 µM; in test [3] (setting [6]), over 1 µM.

On to `N#Cc1ccc(-c2cc(C#N)cc(OC3CC4CCC(C3)N4)c2)cc1` (stereo not drawn) [VI.8, exo 5-(8-Azabicyclo[3.2.1]oct-3-yloxy)-biphenyl-3,4'-dicarbonitrile], for which the EC50 is over 1 µM in test [1] (setting [4]), under 0.1 µM in test [2] (setting [5]) and over 1 µM in test [3] (setting [6]).

The record behind these values is patent EP1957493B1, “8-AZABICYCLO[3.2.1]OCTANE DERIVATIVES USEFUL AS MONOAMINE REUPTAKE INHIBITORS” (N.V. Organon, priority 2005, dated 2007).
